Experimental data from the supplement of paper PMC10307832.

Columns and labels:
Experiment in all cases: relative viability (nuclei count vs DMSO), 5 days (fraction); higher = more cells survive
[1] = compound: C1CNCCC1C2=CC(=NN2)C3=CC=NC=C3 + Cc1cc(Nc2cc(N3CCN(C)CC3)nc(Sc3ccc(NC(=O)C4CC4)cc3)n2)n[nH]1 [Tozasertib] (partner 0.1 µM)
Outline: (§1)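 Relative viability divides the nuclei count in treated wells by that in vehicle wells. Lung cancer cell lines were seeded in 1536-well plates, dosed by pin tool the next day, and fixed and stained after 5 days in one step with final 0.05% Triton X-100, 1% formaldehyde and 1 ug/ml Hoechst. Dosing was a single drug or a fixed anchor-drug dose plus five library-drug doses (not always all listed) in √10 steps, and values are medians of duplicate plates imaged at 4×.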

[2] = compound: C[C@@H](N)c1ccc(C(=O)Nc2ccnc3[nH]ccc23)cc1 + C[C@]1(O)C[C@@H](c2nc(-c3ccc4ccc(-c5ccccc5)nc4c3)c3c(N)nccn32)C1 [Linsitinib] (partner 1 µM)
Outline: as §1

[3] = compound: C[C@@H](N)c1ccc(C(=O)Nc2ccnc3[nH]ccc23)cc1 + N=C(N)NC(=N)NCCc1ccccc1 [Phenformin] (partner 250 µM)
Outline: as §1

[4] = compound: C1CNCCC1C2=CC(=NN2)C3=CC=NC=C3 + O=C(c1cc(Cc2n[nH]c(=O)c3ccccc23)ccc1F)N1CCN(C(=O)C2CC2)CC1 [Olaparib] (partner 8 µM)
Outline: as §1

Cell Line | relative viability ([1]; first compound 0.08 µM) | relative viability ([1]; first compound 0.8 µM) | relative viability ([1]; first compound 2.53 µM) | relative viability ([1]; first compound 8 µM) | relative viability ([2]; first compound 0.04 µM) | relative viability ([2]; first compound 0.1265 µM) | relative viability ([2]; first compound 1.265 µM) | relative viability ([2]; first compound 4 µM) | relative viability ([3]; first compound 0.04 µM) | relative viability ([3]; first compound 0.1265 µM) | relative viability ([3]; first compound 0.4 µM) | relative viability ([3]; first compound 1.265 µM) | relative viability ([3]; first compound 4 µM) | relative viability ([4]; first compound 0.08 µM) | relative viability ([4]; first compound 0.8 µM) | relative viability ([4]; first compound 2.53 µM) | relative viability ([4]; first compound 8 µM) | relative viability ([2]; first compound 0.4 µM)
NCI-H1993 | 0.586 | 0.618 | 0.564 | 0.653 | 0.824 | 0.753 | 0.834 | 0.663 | 0.597 | 0.501 | 0.528 | 0.502 | 0.547 | 0.937 | 0.918 | 1.02 | 1.21 | –
NCI-H2405 | 0.749 | 0.751 | 0.692 | 0.525 | – | 1.07 | 0.599 | 0.45 | 0.176 | 0.449 | 0.369 | 0.264 | 0.218 | 0.843 | 0.952 | 0.894 | 0.831 | 0.744
NCI-H2342 | 0.437 | 0.491 | 0.537 | 0.518 | – | – | – | – | 0.718 | 0.731 | 0.676 | 0.718 | 0.622 | 0.419 | 0.388 | 0.486 | 0.491 | –
NCI-H1792 | – | – | – | – | 0.631 | 0.475 | 0.676 | 0.572 | 0.286 | – | 0.15 | 0.278 | 0.357 | 0.504 | 0.385 | 0.471 | 0.353 | 0.558
NCI-H1563 | – | – | – | – | 1.25 | 1.16 | 1.13 | 1.27 | 0.623 | 0.74 | 0.632 | 0.687 | 0.641 | – | – | – | – | 1.14
NCI-H522 | 0.519 | 0.518 | 0.587 | 0.562 | – | – | – | – | 0.69 | 0.549 | 0.668 | 0.591 | 0.402 | 0.63 | 0.712 | 0.726 | 0.803 | –
SW 900 | 0.648 | 0.623 | 0.514 | 0.681 | – | – | – | – | 0.852 | 0.687 | 0.512 | 0.618 | 0.531 | 1.02 | – | 0.868 | 0.861 | –
EBC-1 | – | – | – | – | 1.07 | 0.873 | 1.05 | 0.86 | – | – | – | – | – | 0.778 | 0.722 | 0.804 | 0.741 | 0.961
NCI-H1650 | 0.393 | 0.446 | 0.433 | 0.392 | – | – | – | – | 0.434 | 0.463 | 0.345 | 0.331 | 0.421 | 0.613 | 0.948 | 0.795 | 0.69 | –
IA-LM | – | – | – | – | 0.801 | 0.665 | 0.904 | 0.759 | – | – | – | – | – | 1.02 | 0.916 | 0.87 | 0.846 | 0.847
NCI-H1703 | – | – | – | – | 0.695 | 0.964 | – | 0.536 | – | – | – | – | – | 0.375 | 0.72 | 0.443 | 0.431 | 0.54
